Assay results reported in PubChem BioAssay AID180 (DTP/NCI, 2004).
“And” between values parts separate entries of the source, which are not always exact repeats. Equal values may be shown once.

Tested on: BDF1 mice, Adenocarcinoma 755 s.c., tumor weight T/C
Test: NCI In Vivo Anticancer Drug Screen. Data for tumor model Adenocarcinoma 755 (subcutaneous) in B6D2F1 (BDF1) mice
Conditions: endpoint: mean tumor weight, schedule: Q01DX011 (ip), higher = larger tumour
Summary of the method: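 Values express treated (T) relative to vehicle-dosed control (C) animals, based on survival or tumour size measured after compound treatment of mice bearing a transplanted tumour.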

[1] = dose: 600.0 mg/kg/injection, vehicle: carboxymethylcellulose (CMC)
[2] = dose: 3.1 mg/kg/injection, vehicle: methylcellulose (MC)
[3] = dose: 6.2 mg/kg/injection, vehicle: methylcellulose (MC)
[4] = dose: 12.5 mg/kg/injection, vehicle: methylcellulose (MC)

Structure (SMILES): NS(=O)(=O)c1nc(S(=O)(=O)O)c2[nH]cnc2n1
- T/C (dose: 30.0 mg/kg/injection, vehicle: carboxymethylcellulose (CMC)): 95 % of control
- T/C (dose: 60.0 mg/kg/injection, vehicle: carboxymethylcellulose (CMC)): 76 % of control
- T/C (dose: 120.0 mg/kg/injection, vehicle: carboxymethylcellulose (CMC)): 86 % of control

Structure (SMILES): Nc1nc(SCc2ccc([N+](=O)[O-])cc2)c2[nH]cnc2n1
- T/C [1]: 10 % of control
- T/C (dose: 750.0 mg/kg/injection, vehicle: carboxymethylcellulose (CMC)): 10 % of control
- T/C (dose: 800.0 mg/kg/injection, vehicle: carboxymethylcellulose (CMC)): 8 % of control
- T/C (dose: 900.0 mg/kg/injection, vehicle: carboxymethylcellulose (CMC)): 1 % of control and 5 % of control
- T/C (dose: 1000.0 mg/kg/injection, vehicle: carboxymethylcellulose (CMC)): 6 % of control

Structure (SMILES): CCNc1ncnc2c1cnn2C1CCCO1 (stereo not drawn)
- T/C [2]: 61 % of control
- T/C [3]: 39 % of control
- T/C [4]: 3 % of control

Structure (SMILES): N#CCSc1nc(N)nc2nc[nH]c12
- T/C (dose: 0.5 mg/kg/injection, vehicle: carboxymethylcellulose (CMC)): 82 % of control
- T/C (dose: 1.0 mg/kg/injection, vehicle: carboxymethylcellulose (CMC)): 63 % of control
- T/C (dose: 2.0 mg/kg/injection, vehicle: carboxymethylcellulose (CMC)): 70 % of control

Structure (SMILES): Nc1ncnc2c1cnn2CCCl
- T/C (dose: 1.5 mg/kg/injection, vehicle: methylcellulose (MC)): 79 % of control
- T/C (dose: 1.5 mg/kg/injection, vehicle: saline): 104 % of control
- T/C [2]: 31 % of control
- T/C (dose: 3.1 mg/kg/injection, vehicle: saline): 90 % of control
- T/C (dose: 4.0 mg/kg/injection, vehicle: carboxymethylcellulose (CMC)): 50 % of control and 65 % of control
- T/C [3]: 26 % of control and 33 % of control
- T/C (dose: 6.2 mg/kg/injection, vehicle: saline): 73 % of control
- T/C [4]: 9 % of control
- T/C (dose: 12.5 mg/kg/injection, vehicle: saline): 25 % of control
- T/C (dose: 16.0 mg/kg/injection, vehicle: carboxymethylcellulose (CMC)): 35 % of control

Structure (SMILES): CC(C)CCS(=O)(=O)OCCCCOS(=O)(=O)CCC(C)C
- T/C (dose: 75.0 mg/kg/injection, vehicle: methylcellulose (MC)): 67 % of control
- T/C (dose: 100.0 mg/kg/injection, vehicle: methylcellulose (MC)): 34 % of control
- T/C (dose: 150.0 mg/kg/injection, vehicle: methylcellulose (MC)): 89 % of control
- T/C (dose: 200.0 mg/kg/injection, vehicle: methylcellulose (MC)): 5 % of control
- T/C (dose: 300.0 mg/kg/injection, vehicle: methylcellulose (MC)): 60 % of control
- T/C (dose: 400.0 mg/kg/injection, vehicle: carboxymethylcellulose (CMC)): 56 % of control
- T/C (dose: 400.0 mg/kg/injection, vehicle: methylcellulose (MC)): 20 % of control
- T/C [1]: 33 % of control
- T/C (dose: 600.0 mg/kg/injection, vehicle: methylcellulose (MC)): 75 % of control
